The record followed here is patent US20100069480A1, “METHODS AND COMPOSITIONS FOR THE TREATMENT OF CANCER” (Bionovo, Inc. A Delaware Corporation, priority 2008, published 2010).

Common to all, as to assay type: cell-based, human
Assay [1] relates to MDA MB 231 and SKBr3 breast cancer cells. Kind of assay: cellular ATP content, ATP bioluminescence assay. The method, then: (§1) The following parameters were examined: • 1. Induction of the loss of the mitochondrial transmembrane potential (MTP). […] Induction of reactive oxygen species (ROS). Induced fluorescence from the cell permeable indicators of ROS such as dihydroethidium (specific for superoxide) (FIG. 2), CM-H2DCFDA (most types of ROS) (FIG. 1) and MitoSOX (mitochondrially derived superoxide) (FIG. 3) was studied using a fluorescent plate reader and FACS. • 3. Compounds were also tested for the potential cellular sources of ROS induced using either specific indicators for ROS of mitochondrial origin, and/or specific inhibitors of ROS production by known sources such as mitochondria, ubiquinone oxidoreductase NQO (mitochondrial complex I) and NADPH oxidases. • 4. Compounds were tested for induction of DNA damage using test known as comet assay that allows detection of DNA damage in individual cells. (FIG. 4) • 5. The induction of death in cells treated with the compounds was examined using propidium iodide test for cell permeability followed by analysis on FACS. • 6. […] Induced fluorescence from the cell permeable indicators of ROS such as dihydroethidium (specific for superoxide) (FIG. 2), CM-H2DCFDA (most types of ROS) (FIG. 1) and MitoSOX (mitochondrially derived superoxide) (FIG. 3) was studied using a fluorescent plate reader and FACS. • 3. […]

For assay [2] the test system is unchanged. Kind of assay: DNA damage, comet assay. On the procedure:
(§2) The following parameters were examined: • 1. Induction of the loss of the mitochondrial transmembrane potential (MTP). […] Induction of reactive oxygen species (ROS). Induced fluorescence from the cell permeable indicators of ROS such as dihydroethidium (specific for superoxide) (FIG. 2), CM-H2DCFDA (most types of ROS) (FIG. 1) and MitoSOX (mitochondrially derived superoxide) (FIG. 3) was studied using a fluorescent plate reader and FACS. • 3. Compounds were also tested for the potential cellular sources of ROS induced using either specific indicators for ROS of mitochondrial origin, and/or specific inhibitors of ROS production by known sources such as mitochondria, ubiquinone oxidoreductase NQO (mitochondrial complex I) and NADPH oxidases. • 4. Compounds were tested for induction of DNA damage using test known as comet assay that allows detection of DNA damage in individual cells. (FIG. 4) • 5. The induction of death in cells treated with the compounds was examined using propidium iodide test for cell permeability followed by analysis on FACS. • 6. The mode of cell death (i.e., apoptosis versus necrosis) was studied using several criteria: conversion of cells to positivity for binding Annexin V; DNA fragmentation (characteristic of apoptotic death) and decrease in cellular ATP levels (commonly observed during necrotic death) (FIG. 5). […]

The test system is the same in assay [3]. In words: mode of cell death: Annexin V binding, DNA fragmentation. On the procedure:
The following parameters were examined: • 1. Induction of the loss of the mitochondrial transmembrane potential (MTP). […] Induction of reactive oxygen species (ROS). Induced fluorescence from the cell permeable indicators of ROS such as dihydroethidium (specific for superoxide) (FIG. 2), CM-H2DCFDA (most types of ROS) (FIG. 1) and MitoSOX (mitochondrially derived superoxide) (FIG. 3) was studied using a fluorescent plate reader and FACS. • 3. Compounds were also tested for the potential cellular sources of ROS induced using either specific indicators for ROS of mitochondrial origin, and/or specific inhibitors of ROS production by known sources such as mitochondria, ubiquinone oxidoreductase NQO (mitochondrial complex I) and NADPH oxidases. • 4. Compounds were tested for induction of DNA damage using test known as comet assay that allows detection of DNA damage in individual cells. (FIG. 4) • 5. The induction of death in cells treated with the compounds was examined using propidium iodide test for cell permeability followed by analysis on FACS. • 6. The mode of cell death (i.e., apoptosis versus necrosis) was studied using several criteria: conversion of cells to positivity for binding Annexin V; DNA fragmentation (characteristic of apoptotic death) and decrease in cellular ATP levels (commonly observed during necrotic death) (FIG. 5). 1. Induction of the loss of the mitochondrial transmembrane potential (MTP). […] Induction of reactive oxygen species (ROS). Induced fluorescence from the cell permeable indicators of ROS such as dihydroethidium (specific for superoxide) (FIG. 2), CM-H2DCFDA (most types of ROS) (FIG. 1) and MitoSOX (mitochondrially derived superoxide) (FIG. 3) was studied using a fluorescent plate reader and FACS. • 3. Compounds were also tested for the potential cellular sources of ROS induced using either specific indicators for ROS of mitochondrial origin, and/or specific inhibitors of ROS production by known sources such as mitochondria, ubiquinone oxidoreductase NQO (mitochondrial complex I) and NADPH oxidases. • 4. […]

Assay [4] shares this test system. In words: induction of ROS, CM-H2DCFDA fluorescence. Conditions: for induction of cellular ROS: CM-H2DCFDA probe. The method, then: as §2
DCFDA is nonfluorescent in reduced form and is readily membrane-permeant. Cellular esterases cleave its acetate groups. The thiol-reactive chloromethyl group then binds to cellular thiols, trapping the dye inside the cell, where oxidation converts it to the fluorescent form. CM-H2DCFDA is oxidized by cellular hydrogen peroxide, hydroxyl radicals, and various free radical products lying downstream from hydrogen peroxide. It is relatively insensitive to oxidation by superoxide. However, because hydrogen peroxide is produced by dismutation of superoxide, CM-H2DCFDA serves as an indirect indicator of superoxide production.
FIG. 1. […] The indicated compounds were added to cells at 20 μg/ml growth medium, followed by addition of 10 μM CM-H2 DCFDA. Inhibitor of mitochondrial respiration, NaN3, was added at 10 mM. After 30 minute incubation, cells were washed in PBS and analyzed on FACScan for fluorescence.

The test system is the same in assay [5]. In words: mitochondrially derived superoxide, MitoSOX. The method, then:
as §1

The mark [6] stands for this setting: Table 11, confirmed in two breast cancer cell lines.

Molecules are shown by their SMILES.

In the case of `O=c1cc(-c2ccc(O)cc2)oc2cc(O)cc(O)c12` [Apigenin], the “change in cellular ATP levels” value in assay [1] is on record as “slight but consistent increase in ATP levels”. Besides, in assay [2], the “induction of DNA damage” value was “do not induce DNA damage”. For the same molecule, the “cell death and its mode” value in assay [3] is “induce significant cell death characterized as apoptotic”. In addition, the “Induction of ROS (fold)” value is reported as 1.5 fold in assay [4] (Table 11, confirmed in two breast cancer cell lines, listed as cmpd 9) and 1.5 fold in assay [4] (Table 12). Further, the “conversion of MitoSOX, detector of mitochondrially derived superoxide” value in assay [5] is reported as “converted to its fluorescent form”.
Regarding `O=c1cc(-c2ccc(O)cc2)oc2c(O)c(O)cc(O)c12` [Isoscutellarein], the “induction of DNA damage” value in assay [2] is reported as “induce DNA damage”. Besides, the “cell death and its mode” value in assay [3] is given as “cell death that has hallmarks of programmed necrosis”. Further, the “induction of cellular ROS” value in assay [4] was “induce ROS, but of extra-mitochondrial origin”. The “Induction of ROS (fold)” value in assay [4] (setting [6]) and in assay [4] (Table 12) was 1.5 fold in each case.
`O=c1cc(-c2ccc(O)cc2)oc2cc(O)cc(O)c12` [cmpd 4]: the “Induction of ROS (fold)” value in assay [4] (setting [6]) came to 0.6 fold.
Consider `O=C1CC(c2ccc(O)cc2)Oc2cc(O)c(O)c(O)c21` (centres unmarked) [Carthamidin], for which, in assay [2], the “induction of DNA damage” value is “induce DNA damage”. For the same molecule, in assay [4], the “induction of cellular ROS” value is reported as “induce ROS, but of extra-mitochondrial origin”.
Turning to `O=c1cc(-c2ccc(O)cc2)oc2cc(O)c(O)c(O)c12` [Scutellarein], in assay [2], the “induction of DNA damage” value is given as “induce DNA damage”. In assay [3], the “cell death and its mode” value was “cell death that has hallmarks of programmed necrosis”. Further, in assay [4], the “induction of cellular ROS” value is “induce ROS, but of extra-mitochondrial origin”. Further, the “Induction of ROS (fold)” value in assay [4] (setting [6]) was 2.4 fold.
For `O=C1CC(c2ccc(O)cc2)Oc2c(O)c(O)cc(O)c21` (centres unmarked) [Isocarthamidin], the “induction of DNA damage” value in assay [2] is “induce DNA damage”. In addition, in assay [4], the “induction of cellular ROS” value was “induce ROS, but of extra-mitochondrial origin”.
